Measured values as given in patent US20200345733A1, “Microbicidal Pyrimidine or Triazine Containing Compounds” (Janssen Sciences Ireland UC, priority 2002, published 2020).
Converted amounts (≈) assume the structure as drawn. Like-named read-outs stand apart in the source and are kept apart here.

Experiments:
[1] = Cytotoxicity in CEM T cells; format: cell-based; conditions: human; viability of CEM T cells decreased by 50%
Description: As a reference system, CEM T cells (obtained from the American Type culture Collection in Rockville, Md.) were used under previously standardized conditions (Balzarini J, et al. AIDS Res Hum Retroviruses 10 Apr. 2000, 16: 517-528). Briefly, cells were suspended at 250,000 cells/ml in RPMI-1640, supplemented with 10% fetal calf serum, 2 mM L-glutamine and 0.075% NaHCO3 and infected with HTLV-IIIB at ˜20 TCID50. 100 μl of a 5-fold dilution series of the drugs were immediately added to 100 μl of the infected cells in 200-μl well plates. After 4 to 5 days of incubation at 37° C., the cultures were examined for syncytium formation. The EC50 is the concentration required to inhibit syncytium formation by 50%. Cytotoxicity was evaluated and given as CC50 values, which is the concentration at which the viability of the CEM cells is decreased by 50%.

[2] = tested on: Neisseria gonorrhoea strains; assay: In vitro antibacterial activity, Neisseria gonorrhoea; format: cell-based; conditions: some strains
Text: (§1) Compatibility with lactobacilli and normal vaginal flora is an important requirement for a vaginal microbicide. Activity on pathogens of sexual transmitted diseases is an additional advantage. In in vitro tests for antibacterial activity of compound B, the following susceptibilities were found: • 33 different Lactobacillus species isolated from recto-vaginal cultures of pregnant women were studied.

T cells = format: cell-based; conditions: human, 5 days
Description: Immune Suppressive Concentration (ISC50) is defined as the drug concentration inhibiting 50% of the lymphocyte proliferation. Cellular toxicity was evaluated microscopically by […] staining of co-cultures of MO-DC and allogeneic CD4(+) T cells , cultured for 5 days in the presence of a dilution series of drug. Part of the harvested cells was also used for flowcytometric analysis of lymphocyte blast formation and apopoptosis, based on forward and side scatter.
Additional experiments were done to evaluate if inhibition of DNA synthesis corresponded to increased mortality of T cells or only to decreased blast formation.

[3] = tested on: cervical epithelial cells (MEI180); assay: MTT viability of cervical epithelial cells; format: cell-based; conditions: exposure 1 hr, 24 hrs or 5 days
[4] = tested on: primary HIV strains (X4, CCR5 and X41R5); assay: Efficacy against primary HIV strains in relevant cell lines; format: cell-based
HIV-1 RF = assay: Direct antiviral activity, immobilised virus with Jurkat-tat indicator cells; format: cell-based
[5] = target: HIV-1 reverse transcriptase (Human immunodeficiency virus type 1 group M subtype B, UniProt P04585); assay: Cell-free HIV-1 reverse transcriptase inhibition; format: biochemical; conditions: inhibits HIV-1 reverse transcriptase activity by 50%, cell-free assay
Description: Next to antiviral activity in CEM T cells, inhibition of HIV-1 reverse transriptase activity was measured in a cell-free assay, in which the 50% inhibitory concentration (IC50) of said compound is indicated (FIG. 1). The CEM system, using a lab T cell-line and the SI/X4labstrain HTLV-IIIb, was not directly relevant to sexual transmission, where primary T cells, dendritic cells and NSI/R5 viruses are involved. Therefore, we focussed on prevention of NSI/R5 HIV infection in MO-DC/CD4(+) T cell co-cultures.

Hemophilus ducreyi = assay: In vitro antibacterial activity, Hemophilus ducreyi; format: cell-based
Text: as §1

Lactobacillus species = assay: In vitro antibacterial activity, lactobacilli; format: cell-based; conditions: 33 different Lactobacillus species from recto-vaginal cultures of pregnant women; read-out: minimum inhibitory concentration (MIC50)
Text: as §1

## Cc1cc(C)c(Nc2ccnc(Nc3ccc(C#N)cc3)n2)c(C)c1 [compound B, 4-[[4-[(2,4,6-trimethylphenyl)amino]-2-pyrimidinyl]amino]benzonitrile]
[1]
  CC50: 1370 nM
[2]
  Inhibition of Neisseria gonorrhoea strains: inhibited at clinical relevant concentrations
T cells
  50% death rate of T cells: 54,222 nM
  Fifty percent inhibition of blast formation: 3,916 nM
[3]; 100 nM
  Toxicity (viability, MTT assay): some reduction of viability
[3]; 50 μM
  Toxicity (viability, MTT assay): no toxicity
[4]
  Efficacy against primary HIV strains: good efficacy
HIV-1 RF; virus pretreated prior to addition of cells, without removal of the compound
  Concentration providing protection of infection: 10 nM
HIV-1 RF; virus treated 1 hour at 37° C., compound removed by washing, co-culture 8 days
  Concentration providing protection of infection: 100 nM
[5]
  IC50: 24 nM
Hemophilus ducreyi
  MIC50: 1 µg/mL (≈ 3.04 µM)
Hemophilus ducreyi; second value
  MIC50: 2 µg/mL (≈ 6.07 µM)
Lactobacillus species
  MIC50: > 32 µg/mL
